Publication PMC8327781 (Journal of medicinal chemistry, 2021)
Where two headings read alike, the source gives them in different places.

Target: JAK2 KD (Homo sapiens, UniProt O60674)
Experiment: Recombinant JAK2 KD protein levels in transfected Expi293F cells
Type: cell-based

JAK2 KD, sequence (O60674 840-1132): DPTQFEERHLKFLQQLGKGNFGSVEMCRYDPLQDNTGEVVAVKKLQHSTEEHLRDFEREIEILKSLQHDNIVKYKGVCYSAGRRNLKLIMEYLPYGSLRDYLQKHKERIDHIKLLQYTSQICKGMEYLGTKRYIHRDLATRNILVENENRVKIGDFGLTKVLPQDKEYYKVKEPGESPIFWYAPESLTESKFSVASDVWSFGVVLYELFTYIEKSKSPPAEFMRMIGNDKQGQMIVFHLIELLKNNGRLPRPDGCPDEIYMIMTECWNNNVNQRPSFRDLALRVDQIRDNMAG

Row | SMILES | JAK2 KD expression increase over that of ruxolitinib alone | JAK2 KD expression increase over that of ruxolitinib alone (HDAC inhibitor added alongside 1 μM ruxolitinib, 2 mM and 4 mM)
1 | CCCC(=O)O [butyric acid] | four-fold | 
2 | CCCC(CCC)C(=O)O [valproic acid] |  | four-fold
